Measurements: publication PMC4110071, “DevR (DosR) mimetic peptides impair transcriptional regulation and survival of Mycobacterium tuberculosis under hypoxia by inhibiting the autokinase activity of DevS sensor kinase” (BMC Microbiology, 2014)
Read-outs that look alike come from different tables or passages of the source.

Key:
[1] = system: DevS201 (cytoplasmic domain of DevS sensor kinase); assay: DevS201 autokinase (autophosphorylation) assay, high-throughput filtration format; type: biochemical, Mycobacterium tuberculosis; conditions: for inhibition of DevS autokinase activity (in words): Pep peptides at 3 mM and 5 mM, preincubated with DevS201 (15 μM) 30 mins at 25°C, three independent experiments, poor reproducibility due to protein aggregation; for % Inhibition of autokinase activity: mean of three independent experiments, 0 = lack of inhibition
[2] = system: Rv3134c promoter (DevR-dependent); type: cell-based, Mycobacterium tuberculosis; conditions: for % Inhibition of reporter activity, Rv3134c promoter: hypoxic, mean of two independent experiments; for inhibition of Rv3134c promoter activity: peptides at 2.5 and 5 mM, two independent experiments
[3] = system: sigA promoter (not regulated by DevR); type: cell-based, Mycobacterium tuberculosis; conditions: for % Inhibition of reporter activity, sigA promoter: peptide 5 mM, 0 = no detectable inhibition
M. tuberculosis = type: cell-based, Mycobacterium tuberculosis; conditions: aerobic cultures; with respect to the DMSO control; two independent experiments
M. tb H37Rv = assay: REMA, aerobic Resazurin reduction assay; type: cell-based, Mycobacterium tuberculosis; conditions: 64 h at 37°C, Resazurin fluorescence, two independent experiments
[4] = system: DevS ~ P to DevR phosphotransfer; assay: In vitro phosphotransfer assay from DevS~P to DevR; type: biochemical, Mycobacterium tuberculosis; conditions: data not shown
Experimental: To study the phosphotransfer reaction, DevS201 (15 μM final concentration) was phosphorylated for 60 mins as described above. Subsequently, full-length DevR or DevRN protein (1–144 amino acid residues, 20 μM final concentration) was added to the phosphorylated DevS201 mix, and the reaction was incubated at 25°C for 2 mins. The reaction was terminated with 10 μl of 2X stop buffer (100 mM Tris-Cl, pH 6.8, 20% glycerol, 2% SDS, 280 mM β-mercaptoethanol, 0.01% bromophenol blue) and the samples were resolved on SDS-PAGE. The gel was rinsed in water and subjected to autoradiography.

[5] = system: CHO (Chinese hamster ovary cells); type: cell-based; conditions: MTT, 5 mM and 2.5 mM peptide, 48 h, relative to the DMSO vehicle control, duplicate values
Experimental: (§1) Figure 6 Cytotoxicity of peptides. Percentage cytotoxicity due to exposure to peptides was assessed in HepG2 and CHO cell lines using the MTT assay. The cells were exposed to DevRS A-ext and DevRS D peptides at 2.5 mM and 5 mM concentration in 96-well plate format for 48 h. Percentage cytotoxicity is shown with respect to the DMSO control as mean ± SD for duplicate values.
(§2) The cytotoxicity of DevRS1 peptide was assessed in CHO (Chinese hamster ovary cells) and HepG2 (human liver hepatocellular carcinoma) cell lines. Both the cell lines were maintained in DMEM supplemented with 10% FBS at 37°C in 5% CO2. Approximately, 10^4 cells were seeded per well in a 96-well plate and incubated at 37 °C for 12–16 h. The peptides were diluted in 125 μl DMEM and added onto cells (final volume 250 μl per well, 2.5 and 5 mM final peptide concentrations), and the plate was incubated at 37°C in 5% CO2 for 48 h. Subsequently, 20 μl of MTT (Sigma 5 μg μl^-1) was added and incubated for 4–5 h at 37°C. Following incubation, media was discarded and the formazan crystals were solubilized by adding 200 μl DMSO and the absorbance measured at A560 nm. The percentage toxicity was calculated as: […]

[6] = system: HepG2 (human liver hepatocellular carcinoma); type: cell-based; conditions: HepG2 cells; MTT; 5 mM and 2.5 mM peptide; 48 h; relative to the DMSO vehicle control; duplicate values
Experimental: as §1, §2

HNTRGEE [Pep A]
inhibition of DevS autokinase activity (in words) ([1]; then ATP 1 h): inhibit DevS autokinase activity to varying degrees

ITNPDPY [Pep D]
inhibition of DevS autokinase activity (in words) ([1]; then ATP 1 h): inhibit DevS autokinase activity to varying degrees

KDIKGME [DevRS A, DevR mimetic peptide KDIKGME]
% Inhibition of reporter activity, Rv3134c promoter ([2]; peptide 2.5 mM): 30%
% Inhibition of reporter activity, Rv3134c promoter ([2]; peptide 5 mM): ~ 45%
% Inhibition of reporter activity, sigA promoter ([3]; aerobic): 6%
% Inhibition of reporter activity, sigA promoter ([3]; hypoxic): ~ 14%

SLFRDWP [Pep C]
% Inhibition of autokinase activity ([1]; Pep peptide 5 mM): 0%
inhibition of DevS autokinase activity (in words) ([1]; then ATP 1 h): did not inhibit autokinase activity at any of the concentrations tested
% Inhibition of autokinase activity ([1]; peptide 3 mM): 0%

TFESYSL [Pep B]
inhibition of DevS autokinase activity (in words) ([1]; then ATP 1 h): inhibit DevS autokinase activity to varying degrees

VRLPD [DevRS D, DevR mimetic peptide VRLPD]
inhibition of DevS autokinase activity ([1]; DevRS peptide 5 mM, preincubated with DevS201 30 mins at 25°C, then ATP 1 h, mean of two independent experiments): 37%
inhibition of Rv3134c promoter activity ([2]; […]): 20-30%
inhibition of Rv3134c promoter activity ([2]; hypoxic conditions): ~40%
inhibition of sigA promoter activity (in words) [3]: did not inhibit sigA promoter activity
CFU: % Inhibition of Viability (M. tuberculosis): ≤ 10%
inhibition of viability, REMA (M. tb H37Rv): ≤ 15%
inhibition of phosphosignal transfer from DevS ~ P to DevR (in words) [4]: neither DevRS A-ext nor DevRS D inhibited this reaction
Percentage cytotoxicity [5]: 20-40%
Percentage cytotoxicity [6]: 20-40%
